In patent US20260125382A1, “COMPOUNDS FOR INHIBITING OR DEGRADING CDK2 AND/OR CDK9 AND MEDICINAL USE THEREOF” (KOREA RESEARCH INSTITUTE OF CHEMICAL TECHNOLOGY, priority 2022, published 2026):

How the values were obtained:
[1] = molecular target: T1, CDK2 (Homo sapiens, UniProt P24941); assay: CDK protein degradation activity (Western blotting), CDK2; format: cell-based; settings: MDA-MB-231 cells, 16 hours, Western blot
T1 construct: endogenous in cells; host or cells: MDA-MB-231
How it was run: (§1)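 MDA-MB-231 cells were treated with compound at final concentrations of 100 nM, 1 μM and 10 μM, or DMSO vehicle, for 16 h. Lysates were resolved by SDS-PAGE and immunoblotted for CDK2, CDK9 and tubulin, with band intensities quantified densitometrically.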

[2] = molecular target: T2, CDK9 (Homo sapiens, UniProt P50750); assay: CDK protein degradation activity (Western blotting), CDK9; format: cell-based; settings: MDA-MB-231 cells, 16 hours, Western blot
T2 construct: endogenous in cells; host or cells: MDA-MB-231
T2 sequence (P50750 whole entry): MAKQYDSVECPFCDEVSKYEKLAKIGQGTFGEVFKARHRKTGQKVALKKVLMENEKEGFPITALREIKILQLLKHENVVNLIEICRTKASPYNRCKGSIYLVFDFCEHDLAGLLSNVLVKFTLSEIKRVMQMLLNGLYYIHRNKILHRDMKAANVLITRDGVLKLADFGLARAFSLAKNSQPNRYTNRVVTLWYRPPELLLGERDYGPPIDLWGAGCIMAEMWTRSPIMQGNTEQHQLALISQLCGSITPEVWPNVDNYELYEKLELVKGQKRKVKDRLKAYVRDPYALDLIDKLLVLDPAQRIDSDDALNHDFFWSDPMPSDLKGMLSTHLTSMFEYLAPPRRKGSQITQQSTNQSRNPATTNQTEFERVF
How it was run: as §1

Enzyme degradation CDK2 (% remaining) @ 0.1 μM [1] | Enzyme degradation CDK2 (% remaining) @ 1 μM [1] | Enzyme degradation CDK2 (% remaining) @ 10 μM [1] | Enzyme degradation CDK9 (% remaining) @ 0.1 μM [2] | Enzyme degradation CDK9 (% remaining) @ 1 μM [2] | Enzyme degradation CDK9 (% remaining) @ 10 μM [2] | SMILES
30/30/30% | 30/30/30% | 30/30/30% | 40% | 20% | 20% | O=C1CC[C@H](N2C(=O)c3ccc(N4CC(C(=O)N5CCN(C6CN(c7ccc(Nc8ncnc9c8ncn9[C@H]8C[C@@H](NC(=O)Cc9ccccc9)C8)cc7)C6)CC5)C4)cc3C2=O)C(=O)N1 [Compound 373, N-((1s,3s)-3-(6-((4-(3-(4-(1-(2-(2,6-dioxopiperidin-3-yl)-1,3-dioxoisoindolin-5-yl)azetidin-3-carbonyl)piperazin-1-yl)azetidin-1-yl)phenyl)amino)-9H-purin-9-yl)cyclobutyl)-2-phenylacetamide]
30% | 30% | 50% | 30% | 20% | 20% | O=C1CCC(N2C(=O)c3ccc(N4CC(C(=O)N5CCN(C6CN(c7ccc(Nc8ncnc9c8ncn9[C@H]8C[C@@H](NC(=O)Cc9ccccc9)C8)cc7)C6)CC5)C4)cc3C2=O)C(=O)N1 (stereo partly drawn) [Compound 374, N-((1s,3s)-3-(6-((4-(3-(4-(1-(2-(2,6-dioxopiperidin-3-yl)-1,3-dioxoisoindolin-5-yl)azetidin-3-carbonyl)piperazin-1-yl)azetidin-1-yl)phenyl)amino)-9H-purin-9-yl)cyclobutyl)-2-phenylacetamide]
30% | 10% | 10% | 30% | 10% | 10% | O=C1CC[C@H](N2C(=O)c3ccc(N4CC(CN5CCC(CCN6CCN(c7ccc(Nc8ncnc9c8ncn9[C@H]8C[C@@H](NC(=O)Cc9ccccc9)C8)cc7)CC6)CC5)C4)cc3C2=O)C(=O)N1 [Compound 375, N-((1s,3s)-3-(6-((4-(4-(2-(1-((1-(2-(2,6-dioxopiperidin-3-yl)-1,3-dioxoisoindolin-5-yl)azetidin-3-yl)methyl)piperidin-4-yl)ethyl)piperazin-1-yl)phenyl)amino)-9H-purin-9-yl)cyclobutyl)-2-phenylacetamide]
30/30/30% | 30/30/30% | 30/30/30% | 10/10/10% | 10/10/10% | 10/10/10% | O=C1CC[C@H](N2C(=O)c3ccc(N4CCC(C(=O)N5CCC6(CC5)CC(N5CCN(c7ccc(Nc8ncnc9c8ncn9[C@H]8C[C@@H](NC(=O)c9c(Cl)cccc9Cl)C8)cc7)CC5)C6)CC4)cc3C2=O)C(=O)N1 [Compound 376, 2,6-dichloro-N-((1s,3s)-3-(6-((4-(4-(7-(1-(2-(2,6-dioxopiperidin-3-yl)-1,3-dioxoisoindolin-5-yl)piperidin-4-carbonyl)-7-azaspiro[3.5]nonan-2-yl)piperazin-1-yl)phenyl)amino)-9H-purin-9-yl)cyclobutyl)benzamide]
20% | 10% | 10% | 0/0/0% | 0/0/0% | 0/0/0% | Cc1cccc(C(=O)N[C@H]2C[C@@H](n3cnc4c(Nc5ccc(N6CCN(CC7CCN(c8cc9c(cc8F)C(=O)N([C@H]8CCC(=O)NC8=O)C9=O)CC7)CC6)cc5)ncnc43)C2)n1 [Compound 377, N-((1s,3s)-3-(6-((4-(4-((1-(2-(2,6-dioxopiperidin-3-yl)-6-fluoro-1,3-dioxoisoindolin-5-yl)piperidin-4-yl)methyl)piperazin-1-yl)phenyl)amino)-9H-purin-9-yl)cyclobutyl)-6-methylpicolinamide]
10/10/10% | 10/10/10% | 10/10/10% | 0/0/0% | 0/0/0% | 0/0/0% | Cc1cccc(C(=O)NC2CC(n3cnc4c(Nc5ccc(N6CCN(CC7CCN(c8ccc9nnn([C@H]%10CCC(=O)NC%10=O)c(=O)c9c8)CC7)CC6)cc5)ncnc43)C2)n1 (stereo partly drawn) [Compound 378, N-((1s,3s)-3-(6-((4-(4-((1-(3-(2,6-dioxopiperidin-3-yl)-4-oxo-3,4-dihydrobenzo[d][1,2,3]triazin-6-yl)piperidin-4-yl)methyl)piperazin-1-yl)phenyl)amino)-9H-purin-9-yl)cyclobutyl)-6-methylpicolinamide]
40/40/40% | 40/40/40% | 40/40/40% | 0/0/0% | 0/0/0% | 0/0/0% | Cc1cccc(C(=O)NC2CC(n3cnc4c(Nc5ccc(N6CCN(CC7CCN(C(=O)C8CCN(c9ccc%10c(c9)C(=O)N([C@H]9CCC(=O)NC9=O)C%10=O)CC8)CC7)CC6)cc5)ncnc43)C2)n1 (stereo partly drawn) [Compound 379, N-((1s,3s)-3-(6-((4-(4-((1-(1-(2-(2,6-dioxopiperidin-3-yl)-1,3-dioxoisoindolin-5-yl)piperidin-4-carbonyl)piperidin-4-yl)methyl)piperazin-1-yl)phenyl)amino)-9H-purin-9-yl)cyclobutyl)-6-methylpicolinamide]
40% | 40% | 30% | 0/0/0% | 0/0/0% | 0/0/0% | Cc1cccc(C(=O)NC2CC(n3cnc4c(Nc5ccc(N6CCN(CCC7CCN(c8ccc9c(c8)C(=O)N([C@H]8CCC(=O)NC8=O)C9=O)CC7)CC6)cc5)ncnc43)C2)n1 (stereo partly drawn) [Compound 380, N-((1s,3s)-3-(6-((4-(4-(2-(1-(2-(2,6-dioxopiperidin-3-yl)-1,3-dioxoisoindolin-5-yl)piperidin-4-yl)ethyl)piperazin-1-yl)phenyl)amino)-9H-purin-9-yl)cyclobutyl)-6-methylpicolinamide]
30% | 20% | 20% | 0/0/0% | 0/0/0% | 0/0/0% | Cc1cccc(C(=O)NC2CC(n3cnc4c(Nc5ccc(N6CCN(CCC7CCN(c8cc9c(cc8F)C(=O)N([C@H]8CCC(=O)NC8=O)C9=O)CC7)CC6)cc5)ncnc43)C2)n1 (stereo partly drawn) [Compound 381, N-((1s,3s)-3-(6-((4-(4-(2-(1-(2-(2,6-dioxopiperidin-3-yl)-6-fluoro-1,3-dioxoisoindolin-5-yl)piperidin-4-yl)ethyl)piperazin-1-yl)phenyl)amino)-9H-purin-9-yl)cyclobutyl)-6-methylpicolinamide]
30% | 30% | 50% | 0/0/0% | 0/0/0% | 0/0/0% | Cc1cccc(C(=O)N[C@H]2C[C@@H](n3cnc4c(Nc5ccc(N6CCN(CCC7CCN(c8ccc9nnn([C@H]%10CCC(=O)NC%10=O)c(=O)c9c8)CC7)CC6)cc5)ncnc43)C2)n1 [Compound 382, N-((1s,3s)-3-(6-((4-(4-(2-(1-(3-(2,6-dioxopiperidin-3-yl)-4-oxo-3,4-dihydrobenzo[d][1,2,3]triazin-6-yl)piperidin-4-yl)ethyl)piperazin-1-yl)phenyl)amino)-9H-purin-9-yl)cyclobutyl)-6-methylpicolinamide]
40/40/40% | 40/40/40% | 40/40/40% | 0/0/0% | 0/0/0% | 0/0/0% | O=C1CC[C@H](N2C(=O)c3ccc(N4CC(C(=O)N5CCC6(CC5)CC(N5CCN(c7ccc(Nc8ncnc9c8ncn9C8CC(NC(=O)c9c(Cl)cccc9Cl)C8)cc7)CC5)C6)C4)cc3C2=O)C(=O)N1 (stereo partly drawn) [Compound 383, 2,6-dichloro-N-((1s,3s)-3-(6-((4-(4-(7-(1-(2-(2,6-dioxopiperidin-3-yl)-1,3-dioxoisoindolin-5-yl)azetidin-3-carbonyl)-7-azaspiro[3.5]nonan-2-yl)piperazin-1-yl)phenyl)amino)-9H-purin-9-yl)cyclobutyl)benzamide]
20/20/20% | 20/20/20% | 20/20/20% | 0/0/0% | 0/0/0% | 0/0/0% | Cc1cccc(C(=O)NC2CC(n3cnc4c(Nc5ccc(N6CCN(C7CC8(CCN(c9ccc%10c(c9)C(=O)N([C@H]9CCC(=O)NC9=O)C%10=O)CC8)C7)CC6)cc5)ncnc43)C2)n1 (stereo partly drawn) [Compound 384, N-((1s,3s)-3-(6-((4-(4-(7-(2-(2,6-dioxopiperidin-3-yl)-1,3-dioxoisoindolin-5-yl)-7-azaspiro[3.5]nonan-2-yl)piperazin-1-yl)phenyl)amino)-9H-purin-9-yl)cyclobutyl)-6-methylpicolinamide]
